Data from patent publication US20260209299A1, “TROP2 IMMUNOGENIC PEPTIDE” (ASTON SCIENCE INC., priority 2023, published 2026).

Columns and labels:
[1] = tested on: Type 1 helper T cells (CD4^+IFN-γ^+); assay: FACS analysis of Type 1 helper T cells (CD4+IFN-γ+) after peptide treatment of PBMCs; format: cell-based, human; conditions: for Combined Score: (A value×0.8)+(B value×0.2); for IFN-gamma − IL-10: A value: difference between distribution of IFN-γ secreting T cells and distribution of IL-10 secretion; for IFN-gamma − Treg: B value: difference between distribution of IFN-γ secreting T cells and Treg distribution; for IFN-gamma (Th1, CD4+): FACS, healthy human PBMCs, peptide 10 μg/ml with 1 μg/ml anti-CD3, 72 hours, then PMA/ionomycin + GolgiPlug 6 hours; for stimulation of Type 1 helper T cells (CD4+IFN-γ+), flow cytometry plot: FIG. 1, peptide together with PMA, ionomycin; for effect of stimulating Type 1 helper T cells while not stimulating Type 2 helper T cells and regulatory T cells: overall FACS conclusion, Table 2
Method: (§1) To this end, the degree of stimulation of Type 1 helper T cells (CD4^+IFN-γ^+), stimulation of interleukin 10 (IL-10)-producing regulatory T cells (CD4^+IL-10+), stimulation of regulatory T cells (CD4^+CD25^+Foxp3^+), and stimulation of Type 2 helper T cells secreting IL-4 and Th17 cells secreting IL-17 according to the treatment with the immunogenic peptide were confirmed.
(§2) Healthy human peripheral blood mononuclear cells (PBMCs; 2,000,000 cells per well) were cultured in 96× round bottom well plates in the presence or absence of anti-CD3 (clone HIT) and peptide at the indicated ratios.
(§3) Specifically, the peptide synthesized in Example 1 at a concentration of 10 μg/ml was cultured with 1 μg/ml of anti-CD3 in a 37° C. incubator for 72 hours. The culture medium consisted of complete RPMI1640 medium supplemented with 10% fetal bovine serum, 10 mM HEPES, 50 µM B-ME, and penicillin/streptomycin/L-glutamine. After 72 hours of culture, the cells were stimulated with Phorbol 12-myristate 13-acetate (50 ng/ml) and Ionomycine (1 μg/mL), which are intracellular cytokine secretion stimulators. To prevent cytokine secretion into the culture medium, the cells were co-stimulated with GolgiPlug, a protein transport inhibitor, at a concentration of 1/100 diluted in PBS for 6 hours in a 37° C. incubator. After stimulation, the cells were washed twice with PBS.
(§4) To determine only the viable cells among the PBMC cells, the cells were labeled with eFlor780-conjugated Fixable Viability dye diluted 1:100 in PBS for 15 minutes at 4° C., and washed twice with stain buffer after 15 minutes. After washing, the cells were surface-labeled with BV421-conjugated anti-CD4 (clone RPA-T4) and PE-Cy5-conjugated anti-CD25 (clone 2A3) antibodies diluted 1:100 in stain buffer for 30 minutes at 4° C. Then, the cells labeled with cell surface proteins were washed twice with stain buffer. Next, to detect cytokines secreted intracellularly, the cells were fixed for 1 hour at room temperature with fixation buffer and then washed with permeabilization buffer. To enable antibodies to detect intracellular cytokines, the fixed cells were labeled overnight at 4° C. with PerCP-Cy5. 5-conjugated anti-IFN-g (clone 4S. B3), Brilliant Violet 510-conjugated anti-IL-4 (clone MP4-25D2), anti-Foxp3 (clone PCH101), and PE-conjugated anti-IL-10 diluted 1:100 in permeabilization (clone JES3-19F1) buffer. Then, the cytokine-labeled cells were washed twice with stain buffer, and cell flow assays were performed using an Attune NxT Acoustic Focusing Cytometer (Invitrogen). Data analysis was performed using Flowjo v10.7.1 software (FlowJo).
1) Calculate the difference between the distribution of IFN-γ secreting T cells and the distribution of IL-10 secretion (A value),
2) Calculate the difference between the distribution of IFN-γ secreting T cells and the Treg distribution (B value),
3) Use the formula “(A value×0.8)+(B value×0.2)” as the final combined scoring, and
(§5) The activity results of the immunogenic peptide candidate group were confirmed by first isolating CD4^+ T cells (helper T cells) from PBMCs, and then classifying the isolated cells into Type 1 helper T cells (CD4^+IFN-γ^+), Type 2 helper T cells (CD4^+IL-4^+), regulatory T cells (CD4^+CD25^+Foxp3^+), and interleukin-10 (IL-10)-producing regulatory T cells (CD4^+IL-10^+) and analyzing the results.

[2] = tested on: interleukin 10 (IL-10)-producing regulatory T cells (CD4^+IL-10^+); assay: FACS analysis of IL-10-producing regulatory T cells (CD4+IL-10+) after peptide treatment of PBMCs; format: cell-based; conditions: healthy human PBMCs, peptide 10 μg/ml with 1 μg/ml anti-CD3, 72 hours, then PMA/ionomycin + GolgiPlug 6 hours
Method: as §2, §3, §4

[3] = tested on: regulatory T cells (CD4^+CD25^+Foxp3^+); assay: FACS analysis of regulatory T cells (CD4+CD25+Foxp3+) after peptide treatment of PBMCs; format: cell-based; conditions: healthy human PBMCs, peptide 10 μg/ml with 1 μg/ml anti-CD3, 72 hours, then PMA/ionomycin + GolgiPlug 6 hours
Method: as §1, §2, §3, §4, §5

[4] = tested on: Type 2 helper T cells (CD4^+IL-4^+); assay: FACS analysis of Type 2 helper T cells (CD4+IL-4+) after peptide treatment of PBMCs; format: cell-based, human; conditions: FIG. 2; peptide together with PMA, ionomycin
Method: as §1, §2, §3
as §4, with “(FlowJo). […]” for “(FlowJo).”

[5] = tested on: interferon-gamma (IFN-γ)-forming T cells; assay: ELISpot assay of IFN-γ-forming T cells using PBMC; format: cell-based; conditions: FIG. 5; human PBMCs, peptide 10 μg/mL, 70-72 hours
Method: The frequency of interferon-gamma (IFN-γ, 3420-4HPW-10, MabTech, Stockholm, Sweden) and interleukin-10 (IL-10, 3430-4HPW-10, MabTech)-forming T cells was assessed using the ELISpot assay.
Specifically, the pre-coated plates were washed four times with 200 μL/well of PBS. Human PBMCs (PCS-800-011, ATCC, Virginia, USA) 2×10^6/mL were dispensed onto the coated plate, and TROP2 peptides were dispensed at 10 μg/mL each and reacted with the PBMCs. The plate reacted under a total volume of 200 μL/well was incubated at 5% CO2, 37° C. for 70-72 hours. Then, the plate was washed 5 times with 200 μL of PBS, and 200 μL of diluted detection antibody (IFN-γ:7-B6-1-biotin; IL-10:12G8-biotin) was added to the wells of the plate, and then reacted at room temperature for 2 hours. After the reaction, the plate was washed 5 times with 200 μL of PBS, and 1:1000 diluted streptavidin-HRP was added at 100 μL/well, followed by reaction at room temperature for 1 hour. Then, the resulting product was washed 5 times with 200 μL of PBS, 100 μL/well of TMB substrate solution was added and reacted at RT for up to 5-10 minutes, and then the spots were counted using the AID iSpot reader system (AID, Strassberg, Germany).

[6] = tested on: MDA-MB-231 cell line; assay: Antitumor effect of cancer vaccine alone in Xenograft cancer mouse model; format: in vivo, athymic Balb/C nude mice; conditions: peptide + CFA/IFA + mGM-CSF, 100 μg per mouse subcutaneously on days 1, 8, 15, 22; vs control group G1
Method: Five-week-old athymic Balb/C nude mice weighing 16 to 18 g were purchased and acclimated for at least 3 to 7 days.
The MDA-MB-231 cell line, a human-derived triple-negative breast cancer cell line, was suspended at 5×10^6 cells per individual in 200 μl of a 1:1 mixture of PBS and Matrigel and injected subcutaneously into the axillary region between the right scapular area and the thoracic wall of the mouse.
On Day 16 after MDA-MB-231 cell transplantation, 32 mice (mean tumor size 143.8±2.9 mm^3) with tumor sizes reaching approximately 150 mm^3 were selected and assigned to each group of 8 mice.
Each group was divided into Group 1 (G1): PBS+CFA/IFA, Group 2 (G2): SEQ ID NO: 3 peptide+CFA/IFA+mGM-CSF, Group 3 (G3): SEQ ID NO: 10 peptide+CFA/IFA+mGM-CSF, and Group 4 (G4): SEQ ID NO: 17 peptide+CFA/IFA+mGM-CSF.
Next, the immunogenic peptide (TROP2 peptide) according to the present invention was administered subcutaneously at a dose of 100 μg per mouse on days 1, 8, 15, and 22 (the 16th day after cell transplantation was designated as Day 0, and the following day was designated as Day 1) for a total of 4 times, and the tumor size for each individual was calculated 11 times (0, 1, 4, 7, 11, 14, 18, 21, 25, 28, and 32) from Day 0 to Day 32. Then, the tumor growth change rate was calculated by comparison with the control group of each Test Group.

Sequence	Combined Score [1]	IFN-gamma − IL-10 [1] [%]	IFN-gamma − Treg [1] [%]	IFN-gamma (Th1, CD4+) [1] [%]	IL-10 (Th2, CD4+) [2] [%]	Treg (CD25+/Foxp3) [3] [%]	stimulation of Type 1 helper T cells (CD4+IFN-γ+), flow cytometry plot [1]	effect of stimulating Type 1 helper T cells while not stimulating Type 2 helper T cells and regulatory T cells [1]	stimulation of Type 2 helper T cells (CD4+IL-4+), flow cytometry plot [4]	number of cells secreting IFN-γ (ELISpot spots) [5]	TGI rate (%) at Day 32 [6] [%]
AGLIAVIVVVVVALVAGMAVLVITNRRKSGKYKK [SEQ ID NO: 24]	11.88	12.35	10.00	17.10	4.75	7.10	–	–	–	–	–
ELRONTSQKAAGDVD (ELRQNTSQKAAGDVD) [SEQ ID NO: 17]	20.02	21.27	15.03	23.20	1.93	8.17	stimulated Type 1 helper T cells (CD4^+IFN-γ^+) to a high degree	most excellent	hardly stimulated Type 2 helper T cells (CD4^+IL-4^+)	dramatically increased the secretion of IFN-γ	57.2
EPLQVERTLIYYLDE [SEQ ID NO: 19]	–	–	–	–	–	–	–	–	–	dramatically increased the secretion of IFN-γ	–
LVRPSEHALVDNDGL [SEQ ID NO: 10]	17.84	18.97	13.34	21.00	2.03	7.66	stimulated Type 1 helper T cells (CD4^+IFN-γ^+) to a high degree	most excellent	hardly stimulated Type 2 helper T cells (CD4^+IL-4^+)	dramatically increased the secretion of IFN-γ	38.5
PKFSMKRLTAGLIAVIV [SEQ ID NO: 22]	11.25	11.75	9.25	16.90	–	7.65	–	–	–	–	–
RERYRLHPKFVAAVH [SEQ ID NO: 15]	12.27	12.87	9.87	17.80	4.93	7.93	–	–	–	–	–
RGEPLQVERTLIYYL [SEQ ID NO: 18]	19.62	20.80	14.89	22.90	2.10	8.01	stimulated Type 1 helper T cells (CD4^+IFN-γ^+) to a high degree	most excellent	hardly stimulated Type 2 helper T cells (CD4^+IL-4^+)	–	–
SKCLLLKARMSAPKN [SEQ ID NO: 8]	11.06	11.65	8.68	16.90	5.25	8.22	–	–	–	–	–
SLRCDELVRTHHILIDLRHRPTAGAFN [SEQ ID NO: 11]	11.16	11.71	8.97	17.20	5.49	8.23	–	–	–	–	–
TLIYYLDEIPPKFSM [SEQ ID NO: 20]	10.26	10.82	8.03	16.10	5.28	8.07	–	–	–	–	–
